# Reference: patent publication US10479780B2, “Aminopyrazole derivatives” (Chugai Seiyaku Kabushiki Kaisha, priority 2015, dated 2019)
# pIC50: −log10 of the molar value.
# Tests used:
# Format in all cases: biochemical
# [1] = target: T1, human Yes1 enzyme (Homo sapiens, UniProt P07947); test: Yes1 enzyme inhibitory activity (time-resolved fluorometry, biotinylated peptide phosphorylation); details: biotinylated peptide phosphorylation, read-out: YES_IC50
# T1 construct: made in house
# Outline: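 Inhibition was expressed against a compound-free control to give IC50, using TR-FRET read-out (Eu-cryptate anti-pTyr antibody, streptavidin-XL665).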
# [2] = target: T2, human Src enzyme (Homo sapiens, UniProt P12931); test: Src enzyme inhibitory activity (time-resolved fluorometry, biotinylated peptide phosphorylation); details: biotinylated peptide phosphorylation, read-out: SRC_IC50
# T2 construct: purchased Carna Biosciences, Inc. 08-173
# T2 sequence (P12931 whole entry): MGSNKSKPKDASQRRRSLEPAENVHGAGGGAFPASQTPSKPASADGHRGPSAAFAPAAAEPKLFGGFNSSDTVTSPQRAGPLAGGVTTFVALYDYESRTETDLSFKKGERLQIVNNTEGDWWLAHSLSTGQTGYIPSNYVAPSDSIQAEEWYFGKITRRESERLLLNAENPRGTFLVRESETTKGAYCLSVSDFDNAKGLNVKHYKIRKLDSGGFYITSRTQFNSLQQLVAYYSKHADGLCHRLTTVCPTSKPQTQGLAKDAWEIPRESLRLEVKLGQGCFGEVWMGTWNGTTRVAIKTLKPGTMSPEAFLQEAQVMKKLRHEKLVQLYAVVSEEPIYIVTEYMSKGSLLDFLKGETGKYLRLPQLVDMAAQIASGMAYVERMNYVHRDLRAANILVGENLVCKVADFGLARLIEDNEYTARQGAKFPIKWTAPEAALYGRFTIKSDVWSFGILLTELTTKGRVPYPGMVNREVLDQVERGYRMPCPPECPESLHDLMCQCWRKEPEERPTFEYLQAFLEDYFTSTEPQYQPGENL
# Outline: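 Compounds were tested for blocking tyrosine phosphorylation of a biotinylated peptide substrate by recombinant human Src. Phosphorylated product was quantified by time-resolved fluorometry using europium cryptate and XL665 conjugates, and IC50 was calculated against the compound-free control.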
# [3] = target: T3, human Lck enzyme (Homo sapiens, UniProt P06239); test: Lck enzyme inhibitory activity (time-resolved fluorometry, biotinylated peptide phosphorylation); details: biotinylated peptide phosphorylation, read-out: LCK_IC50
# T3 construct: purchased Carna Biosciences, Inc. 08-170
# T3 sequence (P06239 whole entry): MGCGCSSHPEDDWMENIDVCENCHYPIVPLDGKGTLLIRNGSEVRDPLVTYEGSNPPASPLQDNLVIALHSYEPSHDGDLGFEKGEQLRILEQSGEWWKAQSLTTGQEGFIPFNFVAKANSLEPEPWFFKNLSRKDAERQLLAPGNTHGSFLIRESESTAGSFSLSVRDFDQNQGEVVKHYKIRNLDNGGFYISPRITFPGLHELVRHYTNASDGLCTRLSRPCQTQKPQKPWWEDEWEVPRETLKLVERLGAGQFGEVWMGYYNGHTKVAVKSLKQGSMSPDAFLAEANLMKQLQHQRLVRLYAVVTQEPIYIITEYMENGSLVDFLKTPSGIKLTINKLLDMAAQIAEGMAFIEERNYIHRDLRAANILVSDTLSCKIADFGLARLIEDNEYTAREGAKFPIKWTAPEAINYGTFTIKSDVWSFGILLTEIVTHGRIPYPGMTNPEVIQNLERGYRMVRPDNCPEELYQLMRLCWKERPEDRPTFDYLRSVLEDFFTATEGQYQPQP
# Outline: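 Readout pairs a europium cryptate-labelled anti-phosphotyrosine antibody with XL665-streptavidin, measured by time-resolved fluorescence. IC50 derived from percent inhibition against untreated controls.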
# T1 sequence (P07947 whole entry): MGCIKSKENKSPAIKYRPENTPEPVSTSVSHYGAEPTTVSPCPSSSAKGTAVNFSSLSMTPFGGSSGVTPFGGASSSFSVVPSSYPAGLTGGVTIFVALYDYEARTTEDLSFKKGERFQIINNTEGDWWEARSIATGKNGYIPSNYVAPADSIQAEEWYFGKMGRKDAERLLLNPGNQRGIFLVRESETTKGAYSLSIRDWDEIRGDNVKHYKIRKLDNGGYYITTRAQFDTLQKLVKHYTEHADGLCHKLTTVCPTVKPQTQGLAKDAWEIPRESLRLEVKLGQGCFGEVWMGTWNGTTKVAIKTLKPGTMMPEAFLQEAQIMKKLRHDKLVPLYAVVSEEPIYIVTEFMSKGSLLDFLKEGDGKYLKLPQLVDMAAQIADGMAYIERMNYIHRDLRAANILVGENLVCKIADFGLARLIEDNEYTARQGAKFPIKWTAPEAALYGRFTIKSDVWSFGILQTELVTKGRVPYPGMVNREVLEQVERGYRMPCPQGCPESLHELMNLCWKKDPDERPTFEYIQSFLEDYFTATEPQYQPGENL
pIC50 [1],pIC50 [2],pIC50 [3],Compound
9.05,7.32,8.41,"Cc1cc(Oc2ccccc2Cl)cc(F)c1-n1ncc(C(=O)c2cc3cc(NS(C)(=O)=O)c(F)cc3[nH]2)c1N [Example 4-2-102, N-[2-[5-amino-1-[4-(2-chlorophenoxy)-2-fluoro-6-methylphenyl]pyrazole-4-carbonyl]-6-fluoro-1H-indol-5-yl]methanesulfonamide]"
9.39,8.15,9.01,"Cc1cc(Oc2ccccc2)cc(F)c1-n1ncc(C(=O)c2cc3cc(NS(C)(=O)=O)c(F)cc3[nH]2)c1N [Example 4-2-103, N-[2-[5-amino-1-(2-fluoro-6-methyl-4-phenoxyphenyl)pyrazole-4-carbonyl]-6-fluoro-1H-indol-5-yl]methanesulfonamide]"
9.25,7.66,8.72,"Cc1cc(Oc2ccccc2F)ncc1-n1ncc(C(=O)c2cc3cc(NS(C)(=O)=O)c(F)cc3[nH]2)c1N [Example 4-2-104, N-[2-[5-amino-1-[6-(2-fluorophenoxy)-4-methylpyridin-3-yl]pyrazole-4-carbonyl]-6-fluoro-1H-indol-5-yl]methanesulfonamide]"
9.44,7.00,7.62,"Cc1cc2cc(C(=O)c3cnn(-c4ccc(Oc5ccccc5F)cc4C)c3N)[nH]c2cc1NS(=O)(=O)N1CCOCC1 [Example 4-2-105, N-[2-[5-amino-1-[4-(2-fluorophenoxy)-2-methylphenyl]pyrazole-4-carbonyl]-5-methyl-1H-indol-6-yl]morpholine-4-sulfonamide]"
8.85,6.74,7.29,"Cc1cc2cc(C(=O)c3cnn(-c4ccc(Oc5cccc(F)c5F)cc4C)c3N)[nH]c2cc1NS(=O)(=O)N1CCOCC1 [Example 4-2-106, N-[2-[5-amino-1-[4-(2,3-difluorophenoxy)-2-methylphenyl]pyrazole-4-carbonyl]-5-methyl-1H-indol-6-yl]morpholine-4-sulfonamide]"
8.62,6.60,7.05,"Cc1cc2cc(C(=O)c3cnn(-c4c(C)cc(Oc5ccccc5F)cc4F)c3N)[nH]c2cc1NS(=O)(=O)N1CCOCC1 [Example 4-2-107, N-[2-[5-amino-1-[2-fluoro-4-(2-fluorophenoxy)-6-methylphenyl]pyrazole-4-carbonyl]-5-methyl-1H-indol-6-yl]morpholine-4-sulfonamide]"
9.00,7.03,7.51,"Cc1cc2cc(C(=O)c3cnn(-c4cnc(Oc5ccccc5F)cc4C)c3N)[nH]c2cc1NS(=O)(=O)N1CCOCC1 [Example 4-2-108, N-[2-[5-amino-1-[6-(2-fluorophenoxy)-4-methylpyridin-3-yl]pyrazole-4-carbonyl]-5-methyl-1H-indol-6-yl]morpholine-4-sulfonamide]"
8.72,6.68,7.35,"Cc1cc2cc(C(=O)c3cnn(-c4cnc(Oc5c(F)cccc5F)cc4C)c3N)[nH]c2cc1NS(=O)(=O)N1CCOCC1 [Example 4-2-109, N-[2-[5-amino-1-[6-(2,6-difluorophenoxy)-4-methylpyridin-3-yl]pyrazole-4-carbonyl]-5-methyl-1H-indol-6-yl]morpholine-4-sulfonamide]"
8.06,6.60,6.96,"Cc1cc2cc(C(=O)c3cnn(-c4cnc(Oc5ccccc5Cl)cc4C)c3N)[nH]c2cc1NS(=O)(=O)N1CCOCC1 [Example 4-2-110, N-[2-[5-amino-1-[6-(2-chlorophenoxy)-4-methylpyridin-3-yl]pyrazole-4-carbonyl]-5-methyl-1H-indol-6-yl]morpholine-4-sulfonamide]"
7.39,6.16,6.49,"Cc1cc2cc(C(=O)c3cnn(-c4cnc(Oc5cccc(Cl)c5)cc4C)c3N)[nH]c2cc1NS(=O)(=O)N1CCOCC1 [Example 4-2-111, N-[2-[5-amino-1-[6-(3-chlorophenoxy)-4-methylpyridin-3-yl]pyrazole-4-carbonyl]-5-methyl-1H-indol-6-yl]morpholine-4-sulfonamide]"
9.03,7.64,8.08,"Cc1cc2cc(C(=O)c3cnn(-c4ccc(Oc5ccccc5F)cc4C)c3N)[nH]c2cc1N1CCCS1(=O)=O [Example 4-2-112, [5-amino-1-[4-(2-fluorophenoxy)-2-methylphenyl]pyrazol-4-yl]-[6-(1,1-dioxo-1,2-thiazolidin-2-yl)-5-methyl-1H-indol-2-yl]methanone]"
9.20,7.74,8.15,"Cc1cc2cc(C(=O)c3cnn(-c4ccc(Oc5cccc(F)c5F)cc4C)c3N)[nH]c2cc1N1CCCS1(=O)=O [Example 4-2-113, [5-amino-1-[4-(2,3-difluorophenoxy)-2-methylphenyl]pyrazol-4-yl]-[6-(1,1-dioxo-1,2-thiazolidin-2-yl)-5-methyl-1H-indol-2-yl]methanone]"
8.30,7.14,7.80,"Cc1cc2cc(C(=O)c3cnn(-c4c(C)cc(Oc5ccccc5F)cc4F)c3N)[nH]c2cc1N1CCCS1(=O)=O [Example 4-2-114, [5-amino-1-[2-fluoro-4-(2-fluorophenoxy)-6-methylphenyl]pyrazol-4-yl]-[6-(1,1-dioxo-1,2-thiazolidin-2-yl)-5-methyl-1H-indol-2-yl]methanone]"
8.39,7.20,7.80,"Cc1cc2cc(C(=O)c3cnn(-c4c(C)cc(Oc5cccc(F)c5F)cc4F)c3N)[nH]c2cc1N1CCCS1(=O)=O [Example 4-2-115, [5-amino-1-[4-(2,3-difluorophenoxy)-2-fluoro-6-methylphenyl]pyrazol-4-yl]-[6-(1,1-dioxo-1,2-thiazolidin-2-yl)-5-methyl-1H-indol-2-yl]methanone]"
8.82,7.37,8.03,"Cc1cc2cc(C(=O)c3cnn(-c4cnc(Oc5c(F)cccc5F)cc4C)c3N)[nH]c2cc1N1CCCS1(=O)=O [Example 4-2-116, [5-amino-1-[6-(2,6-difluorophenoxy)-4-methylpyridin-3-yl]pyrazol-4-yl]-[6-(1,1-dioxo-1,2-thiazolidin-2-yl)-5-methyl-1H-indol-2-yl]methanone]"
9.22,7.68,8.32,"Cc1cc2cc(C(=O)c3cnn(-c4cnc(Oc5ccccc5Cl)cc4C)c3N)[nH]c2cc1N1CCCS1(=O)=O [Example 4-2-117, [5-amino-1-[6-(2-chlorophenoxy)-4-methylpyridin-3-yl]pyrazol-4-yl]-[6-(1,1-dioxo-1,2-thiazolidin-2-yl)-5-methyl-1H-indol-2-yl]methanone]"
8.24,6.96,7.46,"Cc1cc2cc(C(=O)c3cnn(-c4cnc(Oc5cccc(Cl)c5)cc4C)c3N)[nH]c2cc1N1CCCS1(=O)=O [Example 4-2-118, [5-amino-1-[6-(3-chlorophenoxy)-4-methylpyridin-3-yl]pyrazol-4-yl]-[6-(1,1-dioxo-1,2-thiazolidin-2-yl)-5-methyl-1H-indol-2-yl]methanone]"
8.13,7.15,7.64,"Cc1cc2cc(C(=O)c3cnn(-c4cnc(Oc5ccc(F)cc5)cc4C)c3N)[nH]c2cc1N1CCCS1(=O)=O [Example 4-2-119, [5-amino-1-[6-(4-fluorophenoxy)-4-methylpyridin-3-yl]pyrazol-4-yl]-[6-(1,1-dioxo-1,2-thiazolidin-2-yl)-5-methyl-1H-indol-2-yl]methanone]"
9.00,7.55,8.40,"COc1cc2cc(C(=O)c3cnn(-c4c(C)cc(Oc5ccccc5F)cc4F)c3N)[nH]c2cc1N1CCCS1(=O)=O [Example 4-2-120, [5-amino-1-[2-fluoro-4-(2-fluorophenoxy)-6-methylphenyl]pyrazol-4-yl]-[6-(1,1-dioxo-1,2-thiazolidin-2-yl)-5-methoxy-1H-indol-2-yl]methanone]"
9.27,8.10,8.68,"COc1cc2cc(C(=O)c3cnn(-c4cnc(Oc5c(F)cccc5F)cc4C)c3N)[nH]c2cc1N1CCCS1(=O)=O [Example 4-2-121, [5-amino-1-[6-(2,6-difluorophenoxy)-4-methylpyridin-3-yl]pyrazol-4-yl]-[6-(1,1-dioxo-1,2-thiazolidin-2-yl)-5-methoxy-1H-indol-2-yl]methanone]"
8.44,7.47,8.14,"Cc1cc2cc(C(=O)c3cnn(-c4ccc(Oc5ccccc5F)cc4C)c3N)[nH]c2cc1N1CCOCC1 [Example 4-2-122, [5-amino-1-[4-(2-fluorophenoxy)-2-methylphenyl]pyrazol-4-yl]-(5-methyl-6-morpholin-4-yl-1H-indol-2-yl)methanone]"
8.72,7.43,8.24,"Cc1cc2cc(C(=O)c3cnn(-c4cnc(Oc5ccccc5F)cc4C)c3N)[nH]c2cc1N1CCOCC1 [Example 4-2-123, [5-amino-1-[6-(2-fluorophenoxy)-4-methylpyridin-3-yl]pyrazol-4-yl]-(5-methyl-6-morpholin-4-yl-1H-indol-2-yl)methanone]"
8.39,7.47,8.16,"Cc1cc2cc(C(=O)c3cnn(-c4cnc(Oc5c(F)cccc5F)cc4C)c3N)[nH]c2cc1N1CCOCC1 [Example 4-2-124, [5-amino-1-[6-(2,6-difluorophenoxy)-4-methylpyridin-3-yl]pyrazol-4-yl]-(5-methyl-6-morpholin-4-yl-1H-indol-2-yl)methanone]"
